Source: US9738599B2, “Thromboxane receptor antagonists” (UNIVERSITY COLLEGE DUBLIN, NATIONAL UNIVERSITY OF IRELAND, …, priority 2012, dated 2017)

Tested on: human platelets
Assay: U46619-induced human platelet aggregation ex vivo in platelet rich plasma
Assay type: cell-based
Settings: fold less potent than TP20
Text: A modification of the turbidimetric method originally developed by Born & Cross (Born, G. V. and Cross, M. J., The Aggregation of Blood Platelets, J Physiol, 1963, 168:178-95) is used. The principle is based on the diffraction of the light by particles. When a light beam passes through a suspension of particles, it is diffracted, depending on the number and the size of the particles in suspension.
In the Born & Cross method, a light beam passes through a platelet suspension and the quantity of light is measured by a detector placed after the sample. Upon platelet aggregation, the size of platelet aggregates will increase while the total number of free platelets will decrease. Consequently, less light will be diffracted and the detector will record an increase in light intensity. The aggregometer has been developed based on these concepts. Variations in light transmission recorded by this device reflects the platelet physiology. When an agonist of platelet aggregation is added to a platelet suspension, platelets undergo activation and shape change. […]
Light transmission (T) is measured throughout all the experiment, which is ended 8 minutes after induction of aggregation. Maximal light transmission (Tmax) is determined in the sample without drugs. Minimal light transmission (Tmin) is measured in PRP without inducer. […]

## COc1ccc(-c2cccc(Oc3ccc(C#N)cc3S(=O)(=O)NC(=O)NC(C)(C)C)c2)cc1 [NTP4, N-(tert-butylcarbamoyl)-5-cyano-2-((4′-methoxy-[1,1′-biphenyl]-3-yl)oxy)benzenesulfonamide]
  Potency relative to TP20, inhibition of U46619-mediated platelet aggregation: approx. ten-fold
